Measured values taken from patent publication US6274715A, “Tricyclic erythromycin derivatives” (priority 1997, dated 2001).
Converted amounts (≈) assume the structure as drawn.

Key:
Format in all cases: cell-based
[1] = tested on: STAPHYLOCOCCUS AUREUS ATCC 6538P; test: In vitro antibacterial activity, MIC, BHI agar dilution; conditions: S. aureus ATCC 6538P, 35-37° C., 20 to 24 hours, unit assumed
[2] = tested on: STAPHYLOCOCCUS AUREUS A5177; test: as above; conditions: S. aureus A5177, unit assumed
[3] = tested on: STAPHYLOCOCCUS AUREUS A-5278; test: as above; conditions: S. aureus A-5278, unit assumed
[4] = tested on: STAPHYLOCOCCUS AUREUS CMX 642A; test: as above; conditions: S. aureus CMX 642A, unit assumed
[5] = tested on: STAPHYLOCOCCUS AUREUS NCTC10649M; test: as above; conditions: S. aureus NCTC10649M, unit assumed
[6] = tested on: STAPHYLOCOCCUS AUREUS CMX 553; test: as above; conditions: S. aureus CMX 553, unit assumed
[7] = tested on: STAPHYLOCOCCUS AUREUS 1775; test: as above; conditions: S. aureus 1775, unit assumed
[8] = tested on: STAPHYLOCOCCUS EPIDERMIDIS 3519; conditions: S. epidermidis 3519; BHI agar; unit assumed
EN[…] ATCC 8043 = test: In vitro antibacterial activity, MIC, BHI agar dilution; conditions: E. faecium ATCC 8043, unit assumed
Outline: (§1)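 MIC was read visually as the lowest drug concentration showing no growth, a slight haze or sparsely isolated colonies relative to a compound-free BHI plate. Plates held serial aqueous dilutions in BHI agar, were spot-inoculated with 1:100 (or 1:10) culture dilutions and incubated 20 to 24 hours at 35-37° C.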

M[…] ATCC 4698 = test: as above; conditions: M. luteus ATCC 4698, unit assumed
Outline: as §1

M[…] ATCC 9341 = test: as above; conditions: M. luteus ATCC 9341, unit assumed
Outline: as §1

STR[…] 508 = test: as above; conditions: S. agalactiae CMX 508, unit assumed
Outline: as §1

[9] = tested on: STREPTOCOCCUS BOVIS A-5169; test: as above; conditions: S. bovis A-5169, unit assumed
[10] = tested on: STREPTOCOCCUS PYOGENES EES61; test: as above; conditions: S. pyogenes EES61, unit assumed
[11] = tested on: STREPTOCOCCUS PYOGENES 930; test: as above; conditions: S. pyogenes 930, unit assumed
[12] = tested on: STREPTOCOCCUS PYOGENES PIU 2548; test: as above; conditions: S. pyogenes PIU 2548, unit assumed
ESCHERICHIA COLI JUHL = conditions: E. coli JUHL; BHI agar; unit assumed
ESCHERICHIA COLI SS = test: In vitro antibacterial activity, MIC, BHI agar dilution; conditions: E. coli SS, unit assumed
ESCHERICHIA COLI DC-2 = test: as above; conditions: E. coli DC-2, unit assumed
ESCHERICHIA COLI H560 = test: as above; conditions: E. coli H560, unit assumed
ESCHERICHIA COLI KNK 437 = conditions: E. coli KNK 437; BHI agar; unit assumed
[13] = tested on: ENTEROBACTER AEROGENES ATCC 13048; test: In vitro antibacterial activity, MIC, BHI agar dilution; conditions: E. aerogenes ATCC 13048, unit assumed
[14] = tested on: KLEBSIELLA PNEUMONIAE ATCC 8045; test: as above; conditions: K. pneumoniae ATCC 8045, unit assumed
[15] = tested on: PROVIDENCIA STUARTII CMX 640; conditions: P. stuartii CMX 640; BHI agar; unit assumed
[16] = tested on: PSEUDOMONAS AERUGINOSA BMH10; test: In vitro antibacterial activity, MIC, BHI agar dilution; conditions: P. aeruginosa BMH10, unit assumed
[17] = tested on: PSEUDOMONAS AERUGINOSA 5007; test: as above; conditions: P. aeruginosa 5007, unit assumed
[18] = tested on: PSEUDOMONAS AERUGINOSA K799/WT; test: as above; conditions: P. aeruginosa K799/WT, unit assumed
[19] = tested on: PSEUDOMONAS AERUGINOSA K799/61; test: as above; conditions: P. aeruginosa K799/61, unit assumed
PSEUDOMONAS CEPACIA 296I = test: as above; conditions: P. cepacia 296I, unit assumed
[20] = tested on: PSEUDOMONAS AERUGINOSA DPHD-5263; test: as above; conditions: P. aeruginosa DPHD-5263, unit assumed
[21] = tested on: PSEUDOMONAS AERUGINOSA DPHD-2862; test: as above; conditions: P. aeruginosa DPHD-2862, unit assumed
CANDIDA ALBICANS CCH 442 = test: as above; conditions: C. albicans CCH 442, unit assumed
[22] = tested on: MYCOBACTERIUM SMEGMATIS ATCC 114; test: as above; conditions: M. smegmatis ATCC 114, unit assumed

Row | Structure (SMILES) | MIC [1] | MIC [2] | MIC [3] | MIC [4] | MIC [5] | MIC [6] | MIC [7] | MIC [8] | MIC (EN[…] ATCC 8043) | MIC (M[…] ATCC 4698) | MIC (M[…] ATCC 9341) | MIC (STR[…] 508) | MIC [9] | MIC [10] | MIC [11] | MIC [12] | MIC (ESCHERICHIA COLI JUHL) | MIC (ESCHERICHIA COLI SS) | MIC (ESCHERICHIA COLI DC-2) | MIC (ESCHERICHIA COLI H560) | other results
1 | CC[C@H]1OC(=O)[C@H](C)C(=O)[C@H](C)[C@@H](O[C@@H]2O[C@H](C)C[C@H](N(C)C)[C@H]2O)[C@](C)(OC)C[C@@H](C)C2=N[C@@H](COCc3ccccc3)CN3C(=O)O[C@@]1(C)[C@H]3[C@H]2C [Example 89] | 0.39 µg/mL (≈ 0.515 µM) | 0.39 µg/mL (≈ 0.515 µM) | > 100 µg/mL | 0.39 µg/mL (≈ 0.515 µM) | 0.39 µg/mL (≈ 0.515 µM) | 0.39 µg/mL (≈ 0.515 µM) | > 100 µg/mL | 0.39 µg/mL (≈ 0.515 µM) | 0.1 µg/mL (≈ 0.132 µM) | 0.39 µg/mL (≈ 0.515 µM) | 0.05 µg/mL (≈ 0.066 µM) | 0.01 µg/mL (≈ 0.0132 µM) | 0.01 µg/mL (≈ 0.0132 µM) | 0.02 µg/mL (≈ 0.0264 µM) | 100 µg/mL (≈ 132 µM) | 0.2 µg/mL (≈ 0.264 µM) | 100 µg/mL (≈ 132 µM) | 0.39 µg/mL (≈ 0.515 µM) | 100 µg/mL (≈ 132 µM) | 25 µg/mL (≈ 33 µM) | MIC (ESCHERICHIA COLI KNK 437): 100 µg/mL (≈ 132 µM); MIC [13]: > 100 µg/mL; MIC [14]: > 100 µg/mL; MIC [15]: > 100 µg/mL; MIC [16]: > 100 µg/mL; MIC [17]: > 100 µg/mL; MIC [18]: > 100 µg/mL; MIC [19]: 1.56 µg/mL (≈ 2.06 µM); MIC (PSEUDOMONAS CEPACIA 296I): 25 µg/mL (≈ 33 µM); MIC [20]: 100 µg/mL (≈ 132 µM); MIC [21]: > 100 µg/mL; MIC (CANDIDA ALBICANS CCH 442): > 100 µg/mL; MIC [22]: 0.78 µg/mL (≈ 1.03 µM)
2 | CC[C@H]1OC(=O)[C@H](C)C(=O)[C@H](C)[C@@H](O[C@@H]2O[C@H](C)C[C@H](N(C)C)[C@H]2O)[C@](C)(OC)C[C@@H](C)C2=N[C@H](CN3CCN(C)CC3)CN3C(=O)O[C@@]1(C)[C@H]3[C@H]2C [Example 93] | 0.78 µg/mL (≈ 1.04 µM) | 0.78 µg/mL (≈ 1.04 µM) | > 100 µg/mL | 0.78 µg/mL (≈ 1.04 µM) | 0.78 µg/mL (≈ 1.04 µM) | 0.78 µg/mL (≈ 1.04 µM) | > 100 µg/mL | 0.78 µg/mL (≈ 1.04 µM) | 0.39 µg/mL (≈ 0.52 µM) | 0.78 µg/mL (≈ 1.04 µM) | 0.1 µg/mL (≈ 0.133 µM) | 0.1 µg/mL (≈ 0.133 µM) | 0.02 µg/mL (≈ 0.0267 µM) | 0.02 µg/mL (≈ 0.0267 µM) | > 100 µg/mL | 3.1 µg/mL (≈ 4.13 µM) | > 100 µg/mL | 0.78 µg/mL (≈ 1.04 µM) | > 100 µg/mL | 100 µg/mL (≈ 133 µM) | MIC (ESCHERICHIA COLI KNK 437): > 100 µg/mL; MIC [13]: > 100 µg/mL; MIC [14]: > 100 µg/mL; MIC [15]: > 100 µg/mL; MIC [16]: > 100 µg/mL; MIC [17]: > 100 µg/mL; MIC [18]: > 100 µg/mL; MIC [19]: 3.1 µg/mL (≈ 4.13 µM); MIC (PSEUDOMONAS CEPACIA 296I): > 100 µg/mL; MIC [20]: > 100 µg/mL; MIC [21]: > 100 µg/mL; MIC (CANDIDA ALBICANS CCH 442): > 100 µg/mL; MIC [22]: 12.5 µg/mL (≈ 16.7 µM)
3 | CC[C@H]1OC(=O)[C@H](C)C(=O)[C@H](C)[C@@H](O[C@@H]2O[C@H](C)C[C@H](N(C)C)[C@H]2O)[C@](C)(OC)C[C@@H](C)C2=N[C@H](CN3CCOCC3)CN3C(=O)O[C@@]1(C)[C@H]3[C@H]2C [Example 95] | 0.39 µg/mL (≈ 0.529 µM) | 0.39 µg/mL (≈ 0.529 µM) | > 100 µg/mL | 0.39 µg/mL (≈ 0.529 µM) | 0.39 µg/mL (≈ 0.529 µM) | 0.39 µg/mL (≈ 0.529 µM) | > 100 µg/mL | 0.39 µg/mL (≈ 0.529 µM) | 0.2 µg/mL (≈ 0.271 µM) | 0.39 µg/mL (≈ 0.529 µM) | 0.1 µg/mL (≈ 0.136 µM) | 0.1 µg/mL (≈ 0.136 µM) | 0.02 µg/mL (≈ 0.0271 µM) | 0.05 µg/mL (≈ 0.0678 µM) | > 100 µg/mL | 0.39 µg/mL (≈ 0.529 µM) | 100 µg/mL (≈ 136 µM) | 0.39 µg/mL (≈ 0.529 µM) | > 100 µg/mL | 50 µg/mL (≈ 67.8 µM) | MIC (ESCHERICHIA COLI KNK 437): > 100 µg/mL; MIC [13]: > 100 µg/mL; MIC [14]: > 100 µg/mL; MIC [15]: > 100 µg/mL; MIC [16]: > 100 µg/mL; MIC [17]: > 100 µg/mL; MIC [18]: > 100 µg/mL; MIC [19]: 1.56 µg/mL (≈ 2.12 µM); MIC (PSEUDOMONAS CEPACIA 296I): > 100 µg/mL; MIC [20]: > 100 µg/mL; MIC [21]: > 100 µg/mL; MIC (CANDIDA ALBICANS CCH 442): > 100 µg/mL; MIC [22]: 3.1 µg/mL (≈ 4.21 µM)
